The text below walks through data of ChEMBL document CHEMBL1153520, “A multivalent approach to the design and discovery of orally efficacious 5-HT4 receptor agonists” (J Med Chem, 2009).

For orientation: Ki means the dissociation constant of the complex between target and ligand, obtained from inhibition or displacement. High values mean lower affinity, low ones higher affinity. A word on the EC50: it is the midpoint of the concentration-response curve.

Assay [1] has as its target T1, 5-hydroxytryptamine receptor 4 (Homo sapiens, UniProt Q13639). Nature of the assay: Displacement of [H]GR-113808 from human 5HT4C receptor expressed in HEK293 cells by liquid scintillation counting. The class given is cell-based.
The target in assay [2] is T1, 5-hydroxytryptamine receptor 4. Nature of the assay: Agonist activity at human 5HT4C receptor expressed in HEK293 cells assessed as accumulation of cAMP by flash plate adenylyl cyclase activation assay. The format is functional, cell-based.
The species entered for another assay is Homo sapiens. Nature of the assay: Selectivity ratio of Ki for human 5HT3A receptor to Ki for human 5HT4C receptor.
In assay [3] the target is T1, 5-hydroxytryptamine receptor 4. Nature of the assay: Intrinsic activity at human 5HT4C receptor expressed in HEK293 cells assessed as accumulation of cAMP by flash plate adenylyl cyclase activation assay relative to serotonin. The format is functional, cell-based.

T1 sequence (Q13639 whole entry): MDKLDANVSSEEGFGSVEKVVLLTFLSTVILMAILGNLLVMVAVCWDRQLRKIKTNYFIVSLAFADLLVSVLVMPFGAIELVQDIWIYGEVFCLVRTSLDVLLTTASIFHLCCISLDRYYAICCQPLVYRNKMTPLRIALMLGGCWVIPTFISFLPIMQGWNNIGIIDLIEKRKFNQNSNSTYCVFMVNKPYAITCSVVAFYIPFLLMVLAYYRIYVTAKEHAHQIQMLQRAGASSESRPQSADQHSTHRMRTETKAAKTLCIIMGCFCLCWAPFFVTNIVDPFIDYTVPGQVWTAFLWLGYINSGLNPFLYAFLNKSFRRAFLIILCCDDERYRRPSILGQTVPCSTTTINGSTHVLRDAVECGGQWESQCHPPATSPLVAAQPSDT

As for `COc1cc(N)c(Cl)cc1C(=O)NC1CCN(CCCCCCCCO)CC1`, the affinity in assay [1], expressed as Ki, was 79.4 nM. The 50% effective concentration (EC50) in assay [2] was 15.8 nM. Further, the Ratio Ki in the assay listed under Homo sapiens is 29. Besides, the Intrinsic activity in assay [3] is > 100%.

For the molecule `CC(C)n1c(=O)n(C(=O)NCCN2CCNCC2)c2ccccc21`, in assay [1], the inhibition constant (Ki) was 126 nM. The concentration for a half-maximal effect (EC50) in assay [2] is 7.94 nM. In addition, the Ratio Ki in the assay listed under Homo sapiens worked out at 1. In addition, the Intrinsic activity in assay [3] was > 100%.

In assay [1], `COc1cc(N)c(Cl)cc1C(=O)NC1CCN(CCCCCCCCN2CCCCC2)CC1` gave an inhibitory constant (Ki) of 3.16 nM. In assay [2], the EC50 is 3.16 nM. In the assay filed under Homo sapiens, the Ratio Ki amounted to 2000. Further, the Intrinsic activity in assay [3] was > 100%.

`CC(C)n1c(=O)c(C(=O)N[C@H]2C[C@H]3CC[C@@H](C2)N3CCN2CCN(S(C)(=O)=O)CC2)cc2ccccc21` had a Ki in assay [1] of 63.1 nM. The 50% effective concentration (EC50) in assay [2] is 6.31 nM. For the same molecule, the Ratio Ki in the assay listed under Homo sapiens came to 450. The Intrinsic activity in assay [3] was > 100%.

As to `COc1cc(N)c(Cl)cc1C(=O)NC1CCN(CCCCCO)CC1`, the Ki in assay [1] was 63.1 nM. The EC50 in assay [2] was 15.8 nM. Moreover, the Ratio Ki in the assay listed under Homo sapiens is 110. In addition, the Intrinsic activity in assay [3] is > 100%.

`COc1cc(N)c(Cl)cc1C(=O)NC1CCN(CCO)CC1`: the Ki in assay [1] is 200 nM. Also, the EC50 in assay [2] was 63.1 nM. In addition, in the assay listed under Homo sapiens, the Ratio Ki was 1.9. The Intrinsic activity in assay [3] was > 100%.

In assay [1], `COc1cc(N)c(Cl)cc1C(=O)NC1CCN(CCN(C)CCc2c[nH]c3ccccc23)CC1` gave a Ki of 39.8 nM. Also, the EC50 in assay [2] is 15.8 nM. Also, the Ratio Ki in the assay filed under Homo sapiens turned out to be 290. Further, the Intrinsic activity in assay [3] was > 100%.

In assay [1], `CC(C)n1c(=O)c(C(=O)N[C@H]2C[C@H]3CC[C@@H](C2)N3)cc2ccccc21` had a Ki of 251 nM. Besides, the EC50 in assay [2] is 12.6 nM. Moreover, in the assay listed under Homo sapiens, the Ratio Ki came to 0.85. Besides, in assay [3], the Intrinsic activity was > 100%.

In turn, `COc1cc(N)c(Cl)cc1C(=O)NC1CCN(CCN2CCCCC2)CC1` showed an inhibitory constant (Ki) in assay [1] of 251 nM. The EC50 in assay [2] was 100 nM. Further, in the assay filed under Homo sapiens, the Ratio Ki was 3.9. Besides, the Intrinsic activity in assay [3] was > 100%.

In assay [1], `CC(C)n1c(=O)c(C(=O)N[C@H]2C[C@H]3CC[C@@H](C2)N3CCCCCN2C(=O)c3ccccc3C2=O)cc2ccccc21` gave a Ki of 15.8 nM. Besides, in assay [2], the concentration for a half-maximal effect (EC50) was 25.1 nM. Further, the Ratio Ki in the assay listed under Homo sapiens was 1200. The Intrinsic activity in assay [3] is > 100%.

With `COc1cc(N)c(Cl)cc1C(=O)NC1CCN(CCCCCN2CCN(S(C)(=O)=O)CC2)CC1`, affinity in assay [1] was put at a Ki of 39.8 nM. Further, the EC50 in assay [2] was 12.6 nM. Besides, the Ratio Ki in the assay filed under Homo sapiens was found to be 280. In addition, the Intrinsic activity in assay [3] was > 100%.

In assay [1], `CC(C)n1c(=O)c(C(=O)NCC2CCNCC2)cc2ccccc21` gave a Ki of 794 nM. Also, the EC50 in assay [2] was 100 nM. The Ratio Ki in the assay filed under Homo sapiens came out at 1.2. The Intrinsic activity in assay [3] is > 100%.

For the molecule `CCCCCCCCN1CCC(NC(=O)c2cc(Cl)c(N)cc2OC)CC1`, in assay [1], the Ki is 79.4 nM. In addition, the EC50 in assay [2] is 39.8 nM. Besides, in the assay listed under Homo sapiens, the Ratio Ki was 23. Also, the Intrinsic activity in assay [3] is > 100%.

Consider `CC(C)n1c(=O)c(C(=O)N[C@H]2C[C@H]3CC[C@@H](C2)N3CCCCCCCCN2CCN(S(C)(=O)=O)CC2)cc2ccccc21`, for which, in assay [1], the inhibitory constant (Ki) was 15.8 nM. For the same molecule, in assay [2], the EC50 was 3.16 nM. In addition, the Ratio Ki in the assay filed under Homo sapiens was found to be 2100. The Intrinsic activity in assay [3] was > 100%.

In assay [1], `COc1ccc2[nH]cc(C(=O)NCCN3CCNCC3)c2c1` gave a Ki of 316 nM. The Ratio Ki in the assay filed under Homo sapiens worked out at 25. For the same molecule, in assay [3], the Intrinsic activity came out at 0%.

In turn, `COc1ccc2[nH]cc(C(=O)NC3CCNCC3)c2c1` had an inhibition constant Ki in assay [1] of 3160 nM. Further, the Ratio Ki in the assay filed under Homo sapiens came out at 6.7. For the same molecule, in assay [3], the Intrinsic activity is 0%.

On to `CC(C)n1nc(C(=O)NCC2CCNCC2)c2ccccc21`, for which the affinity in assay [1] corresponds to a Ki of 7.94 nM. In addition, in the assay filed under Homo sapiens, the Ratio Ki stood at 3. In addition, the Intrinsic activity in assay [3] was 0%.
